Experiments:
[1] = target: T1, Phospho-EGFR (Tyr1068) in H1975 C797S cells (Homo sapiens, UniProt P00533, C797S/L858R/T790M); assay: HTRF pEGFR/total EGFR assay in H1975 C797S cells; format: cell-based; details: H1975 C797S cells (CRISPR), compound 3 hours, ratio pEGFR/total EGFR
T1 construct: endogenous in cells; host or cells: H1975 C797S (CRISPR-edited in house from ATCC CRL-5908)
In short: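 Phospho-EGFR (Tyr1068) and total EGFR were measured by HTRF (665 and 620 nm) in lysates of NGS-validated H1975 EGFR C797S cells. Cells were dosed for 3 h in duplicate, 0.1% DMSO final. Read-out is the pEGFR/total EGFR ratio relative to the 0 uM control, as percent.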

[2] = target: CtermHisTag-mEGFR Wild type (Homo sapiens, UniProt P00533); assay: TR-FRET probe displacement assay, EGFR wild type; format: binding; details: EGFR wild type 1.25 nM, probe 100 nM, 30 mins room temperature
Sequence of CtermHisTag-mEGFR Wild type (P00533 25-1210): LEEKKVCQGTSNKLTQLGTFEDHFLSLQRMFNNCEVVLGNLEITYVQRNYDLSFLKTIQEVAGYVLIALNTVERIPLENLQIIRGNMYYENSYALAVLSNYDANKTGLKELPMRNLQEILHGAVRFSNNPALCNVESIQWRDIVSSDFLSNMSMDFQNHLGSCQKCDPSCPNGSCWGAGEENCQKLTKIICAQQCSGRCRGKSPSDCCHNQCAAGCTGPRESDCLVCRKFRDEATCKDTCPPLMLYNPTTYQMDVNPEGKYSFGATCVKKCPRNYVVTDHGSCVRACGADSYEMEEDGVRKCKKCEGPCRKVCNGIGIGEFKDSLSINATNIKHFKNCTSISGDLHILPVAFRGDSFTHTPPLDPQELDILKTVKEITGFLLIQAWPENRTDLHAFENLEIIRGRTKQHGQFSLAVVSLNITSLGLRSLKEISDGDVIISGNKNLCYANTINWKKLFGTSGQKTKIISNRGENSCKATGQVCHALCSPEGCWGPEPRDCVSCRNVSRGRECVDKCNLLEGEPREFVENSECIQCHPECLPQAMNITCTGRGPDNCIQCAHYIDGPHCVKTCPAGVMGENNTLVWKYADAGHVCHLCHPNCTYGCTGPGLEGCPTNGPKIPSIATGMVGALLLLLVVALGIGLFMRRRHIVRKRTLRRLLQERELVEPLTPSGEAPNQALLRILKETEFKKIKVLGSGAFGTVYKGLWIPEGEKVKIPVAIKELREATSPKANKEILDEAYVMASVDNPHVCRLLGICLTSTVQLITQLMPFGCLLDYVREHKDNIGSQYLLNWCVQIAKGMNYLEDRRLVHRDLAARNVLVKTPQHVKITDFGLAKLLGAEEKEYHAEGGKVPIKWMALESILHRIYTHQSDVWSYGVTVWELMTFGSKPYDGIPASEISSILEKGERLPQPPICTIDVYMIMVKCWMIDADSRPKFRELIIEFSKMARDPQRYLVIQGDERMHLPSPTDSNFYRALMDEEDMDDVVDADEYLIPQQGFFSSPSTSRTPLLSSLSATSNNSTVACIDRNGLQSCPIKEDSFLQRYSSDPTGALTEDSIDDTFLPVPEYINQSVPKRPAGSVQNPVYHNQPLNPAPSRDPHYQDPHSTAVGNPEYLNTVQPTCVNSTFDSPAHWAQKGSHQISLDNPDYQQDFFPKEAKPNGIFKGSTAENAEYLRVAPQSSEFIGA
In short: (§1)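 Probe displacement from His-tagged wild-type or triple-mutant EGFR measured by TR-FRET (excitation 337 nm, emission 490/520 nm). Compounds spanned final concentrations from 3 to 100000 nM over ten points; technical replicates, repeated twice biologically.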

[3] = target: T2, Phospho-EGFR (Tyr1068) in H1975 cells (Homo sapiens, UniProt P00533, L858R/T790M); assay: HTRF pEGFR/total EGFR assay in H1975 cells; format: cell-based; details: compound 3 hours, ratio pEGFR/total EGFR
T2 construct: host or cells: H1975
T2 sequence (P00533 25-1210 T790M/L858R): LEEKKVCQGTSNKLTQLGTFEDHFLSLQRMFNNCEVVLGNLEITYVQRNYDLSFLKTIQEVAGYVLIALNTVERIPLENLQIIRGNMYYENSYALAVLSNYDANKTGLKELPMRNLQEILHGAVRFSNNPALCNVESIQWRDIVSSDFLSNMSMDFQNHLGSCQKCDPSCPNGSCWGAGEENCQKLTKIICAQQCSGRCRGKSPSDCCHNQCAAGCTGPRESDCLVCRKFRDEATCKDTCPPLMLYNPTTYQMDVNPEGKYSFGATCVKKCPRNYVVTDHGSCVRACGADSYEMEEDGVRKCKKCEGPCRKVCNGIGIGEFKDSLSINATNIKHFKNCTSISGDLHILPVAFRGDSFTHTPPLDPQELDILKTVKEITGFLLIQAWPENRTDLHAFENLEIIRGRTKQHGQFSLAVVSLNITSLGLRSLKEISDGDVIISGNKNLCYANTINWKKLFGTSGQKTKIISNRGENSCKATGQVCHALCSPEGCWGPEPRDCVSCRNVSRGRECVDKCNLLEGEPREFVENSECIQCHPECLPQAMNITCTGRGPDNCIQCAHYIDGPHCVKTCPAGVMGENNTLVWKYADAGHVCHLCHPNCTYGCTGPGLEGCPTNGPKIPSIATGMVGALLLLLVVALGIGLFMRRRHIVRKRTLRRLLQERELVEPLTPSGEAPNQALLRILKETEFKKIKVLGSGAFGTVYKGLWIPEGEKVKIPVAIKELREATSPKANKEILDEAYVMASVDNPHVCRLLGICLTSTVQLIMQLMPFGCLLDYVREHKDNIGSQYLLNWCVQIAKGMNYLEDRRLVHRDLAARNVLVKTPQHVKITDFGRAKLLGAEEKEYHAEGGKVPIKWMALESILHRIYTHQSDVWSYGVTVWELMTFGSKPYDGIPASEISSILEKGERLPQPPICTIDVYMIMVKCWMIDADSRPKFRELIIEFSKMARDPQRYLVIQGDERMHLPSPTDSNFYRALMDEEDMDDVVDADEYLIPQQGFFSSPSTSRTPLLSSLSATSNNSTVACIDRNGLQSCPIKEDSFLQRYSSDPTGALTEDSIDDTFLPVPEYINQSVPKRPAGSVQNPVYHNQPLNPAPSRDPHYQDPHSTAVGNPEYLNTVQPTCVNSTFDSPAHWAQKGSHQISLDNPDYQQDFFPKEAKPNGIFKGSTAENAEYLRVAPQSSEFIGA
In short: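 H1975 cells (EGFR L858R/T790M) adhered 24 h, then compound-treated for 3 h in duplicate, 0.1% DMSO final. Lysates read by HTRF at 665/620 nm for phospho-Tyr1068 and total EGFR. Value is pEGFR/total EGFR ratio as % of 0 uM control.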

[4] = target: T3, Phospho-EGFR (Tyr1068) in A431 cells (Homo sapiens, UniProt P00533); assay: HTRF pEGFR/total EGFR assay in A431 cells (EGF stimulated); format: cell-based; details: compound 2.5 hours then 100 ng/ml EGF 30 mins, ratio pEGFR/total EGFR
T3 construct: endogenous in cells; host or cells: A431
T3 sequence (P00533 25-1210): as the sequence (P00533 25-1210) above
In short: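 HTRF readout (665 and 620 nm) of Tyr1068-phosphorylated versus total EGFR in lysed A431 cells, expressed as ratio relative to 0uM control (%). Compound exposure 2.5 h in duplicate at 0.1% DMSO, with 100 ng/ml EGF added for 30 min.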

[5] = target: CtermHisTag-mEGFR Triple Mutant - C797S, L858R, T790M (Homo sapiens, UniProt P00533, C797S/L858R/T790M); assay: TR-FRET probe displacement assay, EGFR triple mutant; format: binding; details: T790M 1.25 nM, probe 100 nM, 30 mins room temperature
Sequence of CtermHisTag-mEGFR Triple Mutant - C797S, L858R, T790M (P00533 25-1210 T790M/C797S/L858R): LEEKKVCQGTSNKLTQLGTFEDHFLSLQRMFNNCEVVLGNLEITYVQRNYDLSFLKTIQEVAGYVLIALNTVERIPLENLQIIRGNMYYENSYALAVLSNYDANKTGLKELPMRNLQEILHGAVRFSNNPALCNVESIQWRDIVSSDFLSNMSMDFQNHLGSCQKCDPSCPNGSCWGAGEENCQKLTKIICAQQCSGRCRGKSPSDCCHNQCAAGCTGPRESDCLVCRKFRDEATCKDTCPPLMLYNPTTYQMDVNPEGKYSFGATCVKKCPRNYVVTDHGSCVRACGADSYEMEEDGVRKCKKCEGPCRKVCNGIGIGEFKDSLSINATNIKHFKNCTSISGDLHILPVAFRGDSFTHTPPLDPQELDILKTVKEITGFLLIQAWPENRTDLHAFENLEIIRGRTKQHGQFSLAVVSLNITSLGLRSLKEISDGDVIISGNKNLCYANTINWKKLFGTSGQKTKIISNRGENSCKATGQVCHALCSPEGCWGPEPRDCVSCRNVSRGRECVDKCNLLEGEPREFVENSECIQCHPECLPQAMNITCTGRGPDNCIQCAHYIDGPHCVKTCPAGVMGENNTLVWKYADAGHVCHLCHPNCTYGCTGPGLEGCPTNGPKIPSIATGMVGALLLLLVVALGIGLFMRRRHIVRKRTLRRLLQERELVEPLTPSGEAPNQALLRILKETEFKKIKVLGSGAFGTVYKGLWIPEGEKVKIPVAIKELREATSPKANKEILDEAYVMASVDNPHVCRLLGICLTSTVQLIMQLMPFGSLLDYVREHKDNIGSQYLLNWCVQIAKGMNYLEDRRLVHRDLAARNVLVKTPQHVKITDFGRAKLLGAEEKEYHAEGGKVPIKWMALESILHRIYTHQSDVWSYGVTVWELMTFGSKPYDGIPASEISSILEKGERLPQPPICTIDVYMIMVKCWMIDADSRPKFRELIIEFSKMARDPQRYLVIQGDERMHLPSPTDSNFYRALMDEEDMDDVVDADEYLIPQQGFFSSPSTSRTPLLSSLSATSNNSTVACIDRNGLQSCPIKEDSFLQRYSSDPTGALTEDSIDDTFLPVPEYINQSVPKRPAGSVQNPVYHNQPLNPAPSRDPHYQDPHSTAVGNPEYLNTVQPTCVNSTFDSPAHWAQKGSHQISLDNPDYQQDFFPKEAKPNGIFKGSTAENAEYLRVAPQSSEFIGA
In short: as §1

Structure (SMILES)	IC50 [1] [µM]	IC50 [2] [µM]	IC50 [3] [µM]	IC50 [4] [µM]	IC50 [5] [µM]
C#Cc1cc(NC(=O)NC2CCCC2)nc2nc(Nc3ccc(N(C)C(C)=O)cc3)ncc12 [Example 77, N-[4-((7-[(Cyclopentylcarbamoyl)amino]-5-ethynyl)pyrido[2,3-d]pyrimidin-2-ylamino)phenyl]-N-methylacetamide]	> 3	< 1	0.5 to 1	> 3	< 0.02
C#Cc1cc(NC(=O)NC2CCCC2)nc2nc(Nc3ccc(OCCN(C)C)cc3)ncc12 [Example 79, 3-Cyclopentyl-1-[2-((4-[2-(dimethylamino)ethoxyl]phenylamino)-5-ethynyl)pyrido[2,3-d]pyrimidin-7-yl]urea]	< 0.5	< 1	< 0.5	> 3	< 0.02
C#Cc1cc(NC(=O)NC2CCCC2)nc2nc(Nc3ccc(S(C)(=O)=O)cc3)ncc12 [Example 81, 3-Cyclopentyl-1-{5-ethynyl-2-[(4-methanesulfonylphenyl)amino]pyrido[2,3-d]pyrimidin-7-yl}urea]	1 to 3	< 1	0.5 to 1	0.5 to 1	< 0.02
C#Cc1cc(NC(=O)NC2CCCC2)nc2nc(Nc3ccc(S(=O)(=O)N(C)C)cc3)ncc12 [Example 82, 3-Cyclopentyl-1-(2-([4-(dimethylsulfamoyl)phenyl]amino-5-ethynyl)pyrido[2,3-d]pyrimidin-7-yl)urea]	> 3	> 10	> 3	> 3	< 0.02
C#Cc1cc(NC(=O)NC2CCCC2)nc2nc(Nc3ccc(N(C)C(=O)CN(C)C)cc3)ncc12 [Example 83]	< 0.5	< 1	< 0.5	> 3	< 0.02
C#Cc1cc(NC(=O)NC2CCCC2)nc2nc(Nc3ccc(S(=O)(=O)N(C)CCN(C)C)cc3)ncc12 [Example 84]	< 0.5	< 1	< 0.5	> 3	< 0.02
C#Cc1cc(NC(=O)NC2CCCC2)nc2nc(Nc3cccc(CN4CCC(CS(C)(=O)=O)C4)c3)ncc12 (stereo not shown) [Example 86]	0.5 to 1	< 1	> 3	1 to 3	0.02 to 0.1
C#Cc1cc(NC(=O)NC2CCCC2)nc2nc(Nc3cccc4c3CCN(C)C4)ncc12 [Example 88, 3-Cyclopentyl-1-{5-ethynyl-2-[(2-methyl-3,4-dihydro-1H-isoquinolin-5-yl)amino]pyrido[2,3-d]pyrimidin-7-yl}urea]	> 3	> 10	> 3	> 3	0.1 to 1
C#Cc1cc(NC(=O)NC2CCCC2)nc2nc(Nc3ccccc3N3CCC(CS(C)(=O)=O)CC3)ncc12 [Example 90, 3-Cyclopentyl-1-[5-ethynyl-2-({2-[4-(methanesulfonylmethyl)piperidin-1-yl]phenyl}amino)pyrido[2,3-d]pyrimidin-7-yl]urea]	> 3	> 10	> 3	> 3	1 to 50
C#Cc1cc(N2C(=O)NCC23CCCC3)nc2nc(Nc3ccc(N4CCOCC4)cc3)ncc12 [Example 91, 1-(5-Ethynyl-2-{[4-(morpholin-4-yl)phenyl]amino}pyrido[2,3-d]pyrimidin-7-yl)-1,3-diazaspiro[4.4]nonan-2-one]	1 to 3	< 1	0.5 to 1	1 to 3	< 0.02
C#Cc1cc(N2C(=O)NCC23CCCC3)nc2nc(Nc3ccc(N4CCN(C5COC5)CC4)cc3)ncc12 [Example 92, 1-[5-Ethynyl-2-({4-[4-(oxetan-3-yl)piperazin-1-yl]phenyl}amino)pyrido[2,3-d]pyrimidin-7-yl]-1,3-diazaspiro[4.4]nonan-2-one]	1 to 3	< 1	0.5 to 1	1 to 3	< 0.02
C#Cc1cc(N2C(=O)NCC23CCCC3)nc2nc(Nc3ccc(N(C)C(=O)CN(C)C)cc3)ncc12 [Example 94, 2-(Dimethylamino)-N-{4-[(5-ethynyl-7-{2-oxo-1,3-diazaspiro[4.4]nonan-1-yl}pyrido[2,3-d]pyrimidin-2-yl)amino]phenyl}-N-methylacetamide]	1 to 3	< 1	1 to 3	1 to 3	0.02 to 0.1
C#Cc1cc(N2C(=O)NCC23CCCC3)nc2nc(Nc3ccc(OCCN(C)C)cc3)ncc12 [Example 95]	1 to 3	< 1	1 to 3	0.5 to 1	0.02 to 0.1
C#Cc1cc(N2C(=O)NCC23CCCC3)nc2nc(Nc3ccc(S(=O)(=O)N(C)C)cc3)ncc12 [Example 97, 4-[(5-Ethynyl-7-{2-oxo-1,3-diazaspiro[4.4]nonan-1-yl}pyrido[2,3-d]pyrimidin-2-yl)amino]-N,N-dimethylbenzenesulfonamide]	> 3	> 10	> 3	> 3	0.02 to 0.1
C#Cc1cc(N2C(=O)NCC23CCCC3)nc2nc(Nc3ccc(S(=O)(=O)N(C)CCN(C)C)cc3)ncc12 [Example 98, N-[2-(dimethylamino)ethyl]-4-[(5-ethynyl-7-{2-oxo-1,3-diazaspiro[4.4]nonan-1-yl}pyrido[2,3-d]pyrimidin-2-yl)amino]-N-methylbenzenesulfonamide]	> 3	< 1	> 3	1 to 3	0.02 to 0.1

Continued, values first:

IC50 [1] [µM]	IC50 [2] [µM]	IC50 [3] [µM]	IC50 [4] [µM]	IC50 [5] [µM]	Structure (SMILES)
< 0.5	< 1	< 0.5	< 0.5	< 0.02	C#Cc1cc(NC(=O)NC2CCCC2)nc2nc(Nc3ccc(N4CCN(C5COC5)CC4)cc3)ncc12 [Example 76, 3-Cyclopentyl-1-[5-ethynyl-2-({4-[4-(oxetan-3-yl)piperazin-1-yl]phenyl}amino)pyrido[2,3-d]pyrimidin-7-yl]urea]
> 3	1 to 10	> 3	> 3	0.1 to 1	C#Cc1cc(NC(=O)NC2CCCC2)nc2nc(Nc3ccc(N(C)C(=O)CN4CCC4)cc3)ncc12 [Example 78, 2-(Azetidin-1-yl)-N-[4-((7-[(cyclopentylcarbamoyl)amino]-5-ethynyl)pyrido[2,3-d]pyrimidin-2-ylamino)phenyl]-N-methylacetamide]
< 0.5	< 1	> 3	1 to 3	< 0.02	C#Cc1cc(NC(=O)NC2CCCC2)nc2nc(Nc3ccc(OC4CN(C)C4)cc3)ncc12 [Example 80]
< 0.5	< 1	> 3	1 to 3	0.02 to 0.1	C#Cc1cc(NC(=O)NC2CCCC2)nc2nc(Nc3cccc(CN4CC(CS(C)(=O)=O)C4)c3)ncc12 [Example 85]
< 0.5	< 1	> 3	1 to 3	0.02 to 0.1	C#Cc1cc(NC(=O)NC2CCCC2)nc2nc(Nc3cccc(CN4CCC(CS(C)(=O)=O)CC4)c3)ncc12 [Example 87]
> 3	> 10	> 3	> 3	1 to 50	C#Cc1cc(NC(=O)NC2CCCC2)nc2nc(Nc3ccccc3N3CCC(CS(C)(=O)=O)C3)ncc12 (stereo not shown) [Example 89]
1 to 3	> 10	> 3	1 to 3	0.02 to 0.1	C#Cc1cc(N2C(=O)NCC23CCCC3)nc2nc(Nc3ccc(N(C)C(C)=O)cc3)ncc12 [Example 93, N-{4-[(5-Ethynyl-7-{2-oxo-1,3-diazaspiro[4.4]nonan-1-yl}pyrido[2,3-d]pyrimidin-2-yl)amino]phenyl}-N-methylacetamide]
1 to 3	< 1	0.5 to 1	1 to 3	< 0.02	C#Cc1cc(N2C(=O)NCC23CCCC3)nc2nc(Nc3ccc(S(C)(=O)=O)cc3)ncc12 [Example 96, 1-{5-Ethynyl-2-[(4-methanesulfonylphenyl)amino]pyrido[2,3-d]pyrimidin-7-yl}-1,3-diazaspiro[4.4]nonan-2-one]
